Experimental data reported in PubChem BioAssay (NCI).
Several values for one entry are separate records, joined by “and”; a condition that tells them apart may be missing. Equal values may be shown once.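 48-hour exposure; five concentrations; linearly interpolated endpoints. Abbreviation: GI50, concentration required for 50% inhibition of growth. Definition used: TGI = concentration required for complete inhibition of growth.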

Tested on: MDA-MB-468 breast
Assay: inhibition of tumour cell growth, NCI panel, 48 h

SMILES | GI50 | TGI
COc1ccc(C(=O)/C=C/c2cccc(Nc3ccnc4cc(Cl)ccc34)c2)cc1 | 576 nM | 3.38 µM
Cc1ccc(-c2nc3nc(-c4ccccc4)nc(N4CCNCC4)c3o2)cc1 | 310 nM | 1.23 µM
Cc1ccc(-c2csc(NC(=O)N3CCN(c4cc5c(cc4F)c(=O)c(C(=O)O)cn5C4CC4)CC3)n2)cc1 | 1290 nM | 8.17 µM
Cn1cc(-c2csc(-c3cn(CCCN4CCCCC4)c4ccccc34)n2)c2cccnc21 | 1870 nM | 3.74 µM
N#CSCc1ccc(Cl)c(CSC#N)c1 | 129 nM | 32.6 µM
CC(C)(C)c1[nH]nc2c1C(c1cc3ccccc3[nH]c1=O)Nc1cc(C(=O)OCc3ccccc3)ccc1N2 (stereo unspecified) | 2460 nM | 6.74 µM
CCN(CC)c1ccc(/C=N/NC(=O)c2ccc(NS(C)(=O)=O)cc2)cc1 | 358 nM | 3.81 µM
COC(=O)Nc1nc2ccc(Oc3cccc(NC(=O)Nc4cc(C(F)(F)F)ccc4F)c3)cc2[nH]1 | 7870 nM | > 23.1 µM
COc1ccc(Cl)c(Nc2nc3ccccc3nc2NS(=O)(=O)c2cccc(NC(=O)C(C)(C)N)c2)c1 | 2630 nM and 1620 nM | 14.8 µM and > 10 µM
CCC[CH2][Sn]1([CH2]CCC)[O]C2C(CO)OC(n3ccc(N)nc3=O)C2[O]1 (stereo unspecified) | 471 nM | 2 µM
N#Cc1c(NC(=O)c2ccc(F)c(Cl)c2)sc2c1CCC(=O)C2 | 387 nM | 1.95 µM
Cc1nn(-c2ccc(Cl)cc2)c2nc3c(nc12)C(=O)C(=O)c1ccccc1-3 | 13900 nM | > 100 µM
Nc1ncnc2c1c(-c1ccc(Oc3ccccc3)cc1)nn2C[C@@H]1SSC[C@H]1O | 349 nM | 2.61 µM
O=C(Nc1ccc(Oc2cccc(F)c2)c(Cl)c1)c1cnccn1 | 834 nM | 4.99 µM
Cc1ccc2c(n1)C(=O)C(Cl)=C(Nc1cccc(C(F)(F)F)c1)C2=O | 1770 nM | 3.66 µM
O1[As]2O[As]3O[As]1O[As](O2)O3 | 216 nM | 1.26 µM
Nc1c(C(=O)c2cccc(-c3cccnc3)c2)cnn1-c1ccc(F)cc1F | 2970 nM | > 25 µM
COc1cc(OC)c(C(=O)/C=C/c2cccc(C#N)c2)c(OC)c1 | 792 nM | 2.46 µM
Cc1nn(C)c(COc2ccc(N3CCN(S(=O)(=O)N(C)C)CC3)cc2)c1-c1cccc2c(CCCOc3cccc4ccccc34)c(C(=O)O)n(CCN3CCOCC3)c12 | 1910 nM | 5.36 µM
COc1ccc(/C=C(\C(=O)NCc2cccnc2)S(=O)(=O)c2ccccc2)cc1OC | 1570 nM | 5.27 µM
COc1ccc(C2C(C#N)=C(N)Oc3c2sc2ccc(C)cc32)cc1 (stereo unspecified) | 2420 nM | 9.74 µM
C#CCNCCN1C(=O)c2ccc3c4c(ccc(c24)C1=O)C(=O)N(CCNCC#C)C3=O | 2250 nM | 10.4 µM
Cc1cnc(CNC(=O)c2c(=O)c3ccc(N4CCCN(C)CC4)nc3n3c2sc2ccccc23)cn1 | 15700 nM | 34.8 µM
COc1ccc(CC(=O)c2ccc(O)cc2O)cc1 | 56700 nM | > 100 µM
O=[N+]([O-])c1ccc(N=Nc2ccc(O)c3ccccc23)cc1 | 3260 nM | 30.6 µM
CCN1C(=O)N(CC)C2C1NN=c1s/c(=C\c3ccccn3)c(=O)n12 (stereo unspecified) | 523 nM | 5.67 µM
O=c1c(O)c(-c2ccc(O)c(O)c2)oc2cc(O)cc(O)c12 | 6670 nM | 47.2 µM

SMILES | GI50 | TGI
COc1ccc(C2=CC(c3ccc(OC)cc3Br)N3C=CSC3=N2)cc1 (stereo unspecified) | 2650 nM | 10 µM
CN(C)c1ccc(C(=NO)c2ccc(N(C)C)cc2)cc1 | 716 nM | 4.43 µM
C=C1CC[C@@H]2[C@](C)(COC(C)=O)[C@H](OC(C)=O)CC[C@@]2(C)[C@@H]1CC(Nc1ccc(S(=O)(=O)Nc2ccc(Cl)nn2)cc1)C1=CCOC1=O (stereo partly specified) | 1320 nM | 3.37 µM
Cc1[nH]c(=O)nc(Nc2ccc(Cl)cc2)c1C(=O)N1CCN(CCO)CC1 | 34800 nM | > 100 µM
c1ccc2[nH]c(-c3cc(-c4ccc5c(c4)OCO5)n[nH]3)nc2c1 | 3570 nM | 17.2 µM
Cc1[nH]c2ccc(F)cc2c1-c1nc2c3cccnc3c3ncccc3c2[nH]1 | 201 nM | 0.787 µM
CC(C)CCNCC(O)Cn1c2ccccc2c2ccccc21 (stereo unspecified) | 1950 nM | 4.35 µM
NC(=O)c1ccc(-c2nc(-c3ccc4c(c3)OCO4)c(-c3ccccn3)[nH]2)cc1 | > 25000 nM and 21600 nM | > 25 µM and 57 µM
Nc1c(C(=O)c2cccc(C#CCO)c2)cnn1-c1ccc(F)cc1 | > 25000 nM | > 25 µM
O=C1NOC(c2ccc(O)cc2)(c2ccc(O)cc2)c2ccccc21 | > 100000 nM | > 100 µM
O=C1c2ccc3c4c(ccc(c24)C(=O)N1CCCNCc1ccccc1Cl)C(=O)N(CCCNCc1ccccc1Cl)C3=O | 124 nM | 0.352 µM
CCOC(=O)c1cc2c(n1Cc1cc(OC)c(OC)c(OC)c1)-c1oncc1CCC2 | 666 nM | > 83.6 µM
Nc1ccccc1C#C/C=C\C#Cc1cccc(O)c1 | 1380 nM | 20.4 µM
NC(=O)Nc1cc(-c2cccc(F)c2)sc1C(=O)N[C@H]1CCCNC1 | 591 nM and 398 nM | 2.35 µM and 1.64 µM
O=C1C(SCCO)=C(SCCO)C(=O)N1c1ccc(-c2ccccc2)cc1 | 534 nM | 1.5 µM
Cc1ccc(C(=O)NC2CCC2)cc1-c1ccc(C(=O)NCC2CC2)cc1 | > 17200 nM | > 25 µM
COc1ccccc1CNCCCN1C(=O)c2ccc3c4c(ccc(c24)C1=O)C(=O)N(CCCN)C3=O | 333 nM | 1.36 µM
CC(C)=CCc1c2c(c(O)c3c1O[C@]14C(=C[C@@H]5C[C@H]1C(C)(C)O[C@@]4(C/C=C(/C)C(=O)O)C5=O)C3=O)CC(O)C(C)(C)O2 (stereo partly specified) | 12100 nM | 27.6 µM
[Cl][Ru].c1ccc(-c2cccc(-c3ccccn3)n2)nc1.c1ccc(-c2ccnc3c2ccc2c(-c4ccccc4)ccnc23)cc1 | 1310 nM | 3.68 µM
COc1cnc2c(c1)C(=O)c1c-2n(CCCNC2=NCCS2)c(=O)c2cc(Cl)ccc12 | 86 nM | 2.18 µM
COC(=O)c1cc2ccccc2c2c3c(ccc12)OCO3 | 48800 nM | > 1000 µM
Oc1cccc2ccc(-c3nnc(SCc4ccc(O)c5ncccc45)o3)nc12 | 986 nM | 8.49 µM
COC(=O)C1=C(C)NC(C)=C(C(=O)OCC(C)C)C1c1ccccc1[N+](=O)[O-] (stereo unspecified) | 2830 nM | 9.63 µM
CC[C@H](CO)Nc1nc(NCc2ccccc2)c2ncn(C(C)C)c2n1 | 15800 nM | 33.9 µM
CC1=C(CCC(C)NCc2ccc(OCCCN3CCCCC3)cc2)C(C)(C)CCC1 (stereo unspecified) | 1530 nM | 3.12 µM
Cc1nn(-c2ccc([N+](=O)[O-])cc2)c2ncnc(N/N=C/c3ccccc3O)c12 | 1090 nM | 3.88 µM
